Assay results taken from ChEMBL document CHEMBL4732098, “Alkylated monoterpene indole alkaloid derivatives as potent P-glycoprotein inhibitors in resistant cancer cells” (Eur J Med Chem, 2021).

Key:
[1] = system: COLO 205; assay: Cytotoxicity against human COLO 205 cells assessed as reduction in cell viability incubated for 24 hrs by MTT assay; type: cell-based; conditions: COLO 205, 24 h
[2] = system: L5178Y; assay: Cytotoxicity against mouse L5178Y cells assessed as reduction in cell viability incubated for 24 hrs by MTT assay; type: cell-based
[3] = system: L5178Y; assay: Cytotoxicity against mouse L5178Y cells transfected with human ABCB1 assessed as reduction in cell viability incubated for 24 hrs by MTT assay; type: cell-based
[4] = system: COLO 320; assay: Cytotoxicity against human COLO 320 cells assessed as reduction in cell viability incubated for 24 hrs by MTT assay; type: cell-based; conditions: COLO 320, 24 h
[5] = system: L5178Y; assay: Synergistic cytotoxicity against mouse L5178Y cells transfected with human ABCB1 assessed as combination index measured after 72 hrs in presence doxorubicin by MTT assay based Chou-Talalay method; type: functional
[6] = system: COLO 320; assay: Synergistic cytotoxicity against human resistant COLO 320 cells assessed as combination index measured after 72 hrs in presence doxorubicin by MTT assay based Chou-Talalay method; type: functional; conditions: dose 2 µM

| SMILES | IC50 [1] [µM] | IC50 [2] [µM] | IC50 [3] [µM] | IC50 [4] [µM] | CI [5] | CI [6] |
| --- | --- | --- | --- | --- | --- | --- |
| CC[C@@H]1CN(C)[C@H]2Cc3c([nH]c4ccccc34)C(=O)C[C@H]1C2C(=O)OC (some centres undefined) | > 100 | 55.9 | 78.8 | > 100 | – | – |
| CC[C@H]1CN(C)[C@H]2Cc3c([nH]c4ccccc34)C(=O)C[C@H]1C2C(=O)OC (some centres undefined) | 40.4 | 62.5 | 91.8 | 71.6 | – | – |
| CC[C@@H]1CN(C)[C@H]2Cc3c(n(CCc4cccc(Br)c4)c4ccccc34)C(=O)C[C@H]1C2C(=O)OC (some centres undefined) | > 100 | 39.6 | 85.6 | 94.8 | <1 | – |
| C=CCn1c2c(c3ccccc31)C[C@H]1C(C(=O)OC)[C@H](CC2=O)[C@H](CC)CN1C (some centres undefined) | > 100 | 64.2 | 96.6 | > 100 | – | – |
| CC[C@@H]1CN(C)[C@H]2Cc3c(n(CCc4ccc(Br)cc4)c4ccccc34)C(=O)C[C@H]1C2C(=O)OC (some centres undefined) | > 100 | 71 | 59.3 | > 100 | <1 | – |
| CC[C@@H]1CN(C)[C@H]2Cc3c(n(Cc4cccc(OC)c4)c4ccccc34)C(=O)C[C@H]1C2C(=O)OC (some centres undefined) | 88.4 | 42.1 | 36.7 | 84.4 | <1 | – |
| CC[C@@H]1CN(C)[C@H]2Cc3c(n(Cc4cccc(Cl)c4)c4ccccc34)C(=O)C[C@H]1C2C(=O)OC (some centres undefined) | > 100 | 38.4 | 38.1 | 74.7 | <1 | – |
| CC[C@@H]1CN(C)[C@H]2Cc3c(n(Cc4ccc(C(=O)c5ccccc5)cc4)c4ccccc34)C(=O)C[C@H]1C2C(=O)OC (some centres undefined) | > 100 | 89.3 | > 100 | > 100 | – | – |
| CC[C@@H]1CN(C)[C@H]2Cc3c(n(Cc4ccc(C)cc4)c4ccccc34)C(=O)C[C@H]1C2C(=O)OC (some centres undefined) | 11.8 | 31.8 | 37.1 | 53 | <1 | <1 |
| CC[C@@H]1CN(C)[C@H]2Cc3c(n(Cc4ccc(OC)cc4)c4ccccc34)C(=O)C[C@H]1C2C(=O)OC (some centres undefined) | 90.6 | 86 | 80.1 | 76.8 | – | – |
| CC[C@@H]1CN(C)[C@H]2Cc3c(n(Cc4ccccc4C)c4ccccc34)C(=O)C[C@H]1C2C(=O)OC (some centres undefined) | > 100 | 42.2 | 61 | 97.5 | <1 | – |
| CC[C@@H]1CN(C)[C@H]2Cc3c(n(Cc4ccc([N+](=O)[O-])cc4)c4ccccc34)C(=O)C[C@H]1C2C(=O)OC (some centres undefined) | > 100 | 63.3 | 81 | 86.2 | – | – |
| CC[C@@H]1CN(C)[C@H]2Cc3c(n(Cc4cccc([N+](=O)[O-])c4)c4ccccc34)C(=O)C[C@H]1C2C(=O)OC (some centres undefined) | > 100 | 63.1 | 58.9 | > 100 | <1 | – |
| CC[C@@H]1CN(C)[C@H]2Cc3c(n(Cc4ccccn4)c4ccccc34)C(=O)C[C@H]1C2C(=O)OC (some centres undefined) | > 100 | 97.6 | > 100 | > 100 | – | – |
| CCCn1c2c(c3ccccc31)C[C@H]1C(C(=O)OC)[C@H](CC2=O)[C@H](CC)CN1C (some centres undefined) | > 100 | 35.1 | 48.5 | > 100 | <1 | – |
| CC[C@@H]1CN(C)[C@H]2Cc3c(n(CCc4ccc(OC)cc4)c4ccccc34)C(=O)C[C@H]1C2C(=O)OC (some centres undefined) | 80 | 25.5 | 37.2 | 49 | <1 | <1 |
| CC[C@H]1CN(C)[C@H]2Cc3c(n(CC)c4ccccc34)C(=O)C[C@H]1C2C(=O)OC (some centres undefined) | > 100 | 66.3 | 48.4 | > 100 | <1 | – |
| CC[C@H]1CN(C)[C@H]2Cc3c(n(Cc4ccc(Br)cc4)c4ccccc34)C(=O)C[C@H]1C2C(=O)OC (some centres undefined) | 28.4 | 34.7 | 38.5 | 24.8 | <1 | – |
| CC[C@H]1CN(C)[C@H]2Cc3c(n(Cc4ccc(OC)cc4)c4ccccc34)C(=O)C[C@H]1C2C(=O)OC (some centres undefined) | 58.9 | 50.7 | 35.6 | 60.3 | <1 | <1 |
| CC[C@@H]1CN(C)[C@H]2Cc3c(n(Cc4ccc(Cl)cc4)c4ccccc34)C(=O)C[C@H]1C2C(=O)OC (some centres undefined) | 55.5 | 48.3 | 43.2 | 61.3 | <1 | – |
| CC[C@H]1CN(C)[C@H]2Cc3c(n(Cc4ccc(Cl)cc4)c4ccccc34)C(=O)C[C@H]1C2C(=O)OC (some centres undefined) | 15.9 | 32.4 | 24.1 | 23.4 | <1 | – |
| CC[C@@H]1CN(C)[C@H]2Cc3c(n(CCc4cccc(OC)c4)c4ccccc34)C(=O)C[C@H]1C2C(=O)OC (some centres undefined) | > 100 | 40.6 | 78.4 | > 100 | <1 | – |
| CC[C@@H]1CN(C)[C@H]2Cc3c(n(CC)c4ccccc34)C(=O)C[C@H]1C2C(=O)OC (some centres undefined) | > 100 | 69.4 | 74.4 | > 100 | – | – |
| CC[C@@H]1CN(C)[C@H]2Cc3c(n(Cc4cccc(C)c4)c4ccccc34)C(=O)C[C@H]1C2C(=O)OC (some centres undefined) | 93.6 | 41.9 | 52.8 | 82.2 | <1 | – |
| CC[C@@H]1CN(C)[C@H]2Cc3c(n(Cc4cc(OC)cc(OC)c4)c4ccccc34)C(=O)C[C@H]1C2C(=O)OC (some centres undefined) | > 100 | 27.8 | 39.1 | > 100 | <1 | – |
| CC[C@@H]1CN(C)[C@H]2Cc3c(n(Cc4ccc(Br)cc4)c4ccccc34)C(=O)C[C@H]1C2C(=O)OC (some centres undefined) | 39.7 | 36.4 | 45 | 45.7 | <1 | – |
| CCCn1c2c(c3ccccc31)C[C@H]1C(C(=O)OC)[C@H](CC2=O)[C@@H](CC)CN1C (some centres undefined) | 25.2 | 45.1 | 34.7 | 40.5 | <1 | – |
| CC[C@@H]1CN(C)[C@H]2Cc3c(n(CCCO)c4ccccc34)C(=O)C[C@H]1C2C(=O)OC (some centres undefined) | > 100 | > 100 | > 100 | > 100 | – | – |
